US20250381110A1, “SKIN CARE COMPOSITION AND METHOD OF USING THE SAME” (THE PROCTER & GAMBLE COMPANY, priority 2024, published 2025)
Counter-ions that a name gives are not always drawn.

Tested on: p62-dependent mitophagy
Assay: Luciferase-p62 assay (Fluc-p62 clearance) in mouse embryonic fibroblasts
Type: cell-based
Conditions: for Mean Luminescence: Luciferase-p62 assay, mouse embryonic fibroblasts (MEFs), compounds at 10 μM; for % Activity over baseline: percentage of Luciferase-p62 clearance relative to baseline (mean luminescence in the absence of doxycycline induction); for % Activity over baseline / % Activity relative to Rapamycin: MEFs, 10 μM; for % Activity relative to Rapamycin: percentage of activity relative to rapamycin tested in the same experiment at the same concentration
Method: To identify p62-dependent materials which increase mitophagy, a Luciferase-p62 Assay was established. This method provides an approach to measure the ability of a material to modulate p62-dependent mitophagy by using an inducible firefly luciferase-p62 (Fluc-p62) reporter cell system. In this assay, p62 levels are driven by doxycycline treatment. After levels increased, expression of Fluc-p62 is turned off by removal of doxycycline, materials are then added and assessed for how they affect clearance of Fluc-p62 protein, which is proportionate to cellular mitophagy rates (Kelly et al.). The negative control is doxycycline induced Luc-p62 in the absence of compound or bioactive material treatment and in the presence of vehicle (DMSO).
Test materials including bioactive materials were screened in mouse embryonic fibroblasts (MEFs, Harada et al.) expressing the TET-inducible p62-fluc construct as previously described (Brown et al.). […] Gibson assembly was used to insert firefly luciferase (Fluc) and p62 into the pCW57.1 backbone. Fluc, p62, and pCW57.1 were polymerase chain reaction (PCR) amplified using pfu polymerase (Life technologies) and Gibson assembly primers with 20 base pair (bp) overhangs. PCR products were separated by agarose gel electrophoreses, and fragments excised and purified before use in DNA assembly reaction with NEBuilder HiFi DNA Assembly kit (New England Biolabs). After the assembly, the reaction mix was transformed into NEB3040 Stable Competent Escherichia coli (New England Biolabs). After 24 hours growth at 31 degrees Celsius the plasmid was extracted using QIAprep Spin Miniprep kit (Qiagen). The plasmid was sequenced to confirm correct insertion of Fluc-p62. To generate MEFs stably expressing doxycycline inducible Fluc-p62, HEK293FT cells were transfected with Fluc-p62-pCW57.1 and the ViraPower Packaging Mix (Invitrogen) to produce lentivirus. MEFs were transduced with the obtained lentiviral stock following followed by selection with 1 microgram per milliliter puromycin.Fluc-p62expressing MEFs were maintained in DMEM supplemented with 10 percent fetal bovine serum (FBS), 100 units per milliliter penicillin/streptomycin, and 2 millimolar L-glutamine in a humidified atmosphere containing 5 percent carbon dioxide at 37 degrees Celsius. Cells were plated into white 96 well plates (2,000 cells per well with 100 microliters media) and allowed to settle for 24 hours. […] Subsequently, cells were treated with test materials for 48 hours in normal growth medium and analysed using ONE-Glo™+Tox Luciferase Reporter and Cell Viability Assay (Promega) by following the manufacturer's protocol.
Test compositions and control compositions were prepared as described above in the Luciferase-p62 assay (Method 3) and tested accordingly. The compounds used in this example, as examples of bioactive materials, were from the APExBIO DiscoveryProbe™ Natural Product Library Plus (Houston, TX) and evaluated at equivalent concentrations (10 μM).
Data are additionally calculated as percentage of activity relative to rapamycin, a benchmark control compound tested in the same experiment.

In the case of CC[C@@H]1/C=C(\C)C[C@H](C)C[C@H](OC)[C@H]2O[C@@](O)(C(=O)C(=O)N3CCCC[C@H]3C(=O)O[C@H](/C(C)=C/[C@@H]3CC[C@@H](O)[C@H](OC)C3)[C@H](C)[C@@H](O)CC1=O)[C@H](C)C[C@@H]2OC [Ascomycin(FK 520)], the “Mean Luminescence” value is reported as 640.39, the “% Activity over baseline” value is reported as 60.42% and the “% Activity relative to Rapamycin” value is reported as 108.87%.
In the case of O=C(O)c1cc(O)c(O)c(O)c1 [Gallic acid], the “Mean Luminescence” value is reported as 898.71, the “% Activity over baseline” value is reported as 44.46% and the “% Activity relative to Rapamycin” value is reported as 80.10%.
With Bleomycin Sulfate the “Mean Luminescence” value was 615.38, the “% Activity over baseline” value was 61.97% and the “% Activity relative to Rapamycin” value was 111.65%.
With CO/N=C(\C(=O)N[C@@H]1C(=O)N2C(C(=O)O)=C(Cn3ccc(=N)n3CCO)CS[C@H]12)c1csc(N)n1.O=S(=O)(O)O [Cefoselis Sulfate] the “Mean Luminescence” value was 937.12, the “% Activity over baseline” value was 42.09% and the “% Activity relative to Rapamycin” value was 75.83%.
In the case of CN1[C@@H]2CC[C@H]1CC(=O)C2 [Tropinone], the “Mean Luminescence” value is reported as 896.55, the “% Activity over baseline” value is reported as 44.59% and the “% Activity relative to Rapamycin” value is reported as 80.34%.
With COc1cc(C=O)cc(OC)c1O [Syringaldehyde] the “Mean Luminescence” value was 896.55, the “% Activity over baseline” value was 44.59% and the “% Activity relative to Rapamycin” value was 80.34%.
In the case of CC(=O)O[C@H]1C(=O)[C@@]2(C)[C@H]([C@H](OC(=O)c3ccccc3)[C@]3(O)C[C@H](OC(=O)[C@H](O)[C@@H](NC(=O)c4ccccc4)c4ccccc4)C(C)=C1C3(C)C)[C@]1(OC(C)=O)CO[C@@H]1C[C@@H]2O [Compound 7-Epitaxol], the “Mean Luminescence” value is reported as 968.61, the “% Activity over baseline” value is reported as 40.14% and the “% Activity relative to Rapamycin” value is reported as 72.32%.
For CC(C)c1cc2c(c(O)c1O)[C@@]1(C(=O)O)CCCC(C)(C)[C@@H]1CC2 [Carnosic acid], the “Mean Luminescence” value was 661.96, the “% Activity over baseline” value was 59.09% and the “% Activity relative to Rapamycin” value was 106.47%.
CO[C@H]1C(=O)[C@]2(C)[C@@H](OC)C[C@H]3OC[C@@]3(OC(C)=O)[C@H]2[C@H](OC(=O)c2ccccc2)[C@]2(O)C[C@H](OC(=O)[C@H](O)[C@@H](NC(=O)OC(C)(C)C)c3ccccc3)C(C)=C1C2(C)C [Cabazitaxel] was tested, and the “Mean Luminescence” value was 929.36, the “% Activity over baseline” value was 42.56% and the “% Activity relative to Rapamycin” value was 76.69%.
In the case of Clc1ccc(COC(Cn2ccnc2)c2ccc(Cl)cc2Cl)c(Cl)c1 (stereo not drawn) [Miconazole Nitrate], the “Mean Luminescence” value is reported as 704.35, the “% Activity over baseline” value is reported as 56.47% and the “% Activity relative to Rapamycin” value is reported as 101.75%.
Nc1nc2c(ncn2[C@@H]2O[C@H](COP(=O)([O-])[O-])[C@@H](O)[C@H]2O)c(=O)[nH]1.[Na+].[Na+] [Guanosine 5′-monophosphate (sodium salt)] was tested, and the “Mean Luminescence” value was 977.65, the “% Activity over baseline” value was 39.58% and the “% Activity relative to Rapamycin” value was 71.31%.
With CC(C)(C)NCC(O)c1cc(Cl)c(N)c(Cl)c1 (stereo not drawn) [Clenbuterol (hydrochloride)] the “Mean Luminescence” value was 994.53, the “% Activity over baseline” value was 38.54% and the “% Activity relative to Rapamycin” value was 69.44%.
For CC[C@H]1CN2CC[C@]3(C(=O)Nc4ccccc43)[C@@H]2C[C@@H]1/C(=C\OC)C(=O)OC [Rhynchophylline], the “Mean Luminescence” value was 953.80, the “% Activity over baseline” value was 41.05% and the “% Activity relative to Rapamycin” value was 73.97%.
With Nc1ccc(O)cc1 [Compound 4-Aminophenol, 4-Aminophenol] the “Mean Luminescence” value was 482.45, the “% Activity over baseline” value was 70.18% and the “% Activity relative to Rapamycin” value was 126.45%.
For O=c1cc[nH]c(=O)[nH]1 [Uracil], the “Mean Luminescence” value was 927.30, the “% Activity over baseline” value was 42.69% and the “% Activity relative to Rapamycin” value was 76.92%.
With C=C1CC[C@@H]2[C@](C)(CO)[C@H](O)CC[C@@]2(C)[C@@H]1C/C=C1/C(=O)OC[C@H]1O [Andrographolide] the “Mean Luminescence” value was 818.97, the “% Activity over baseline” value was 49.39% and the “% Activity relative to Rapamycin” value was 88.98%.
With COc1ccc(C(=O)O)cc1OC [Veratric acid] the “Mean Luminescence” value was 937.88, the “% Activity over baseline” value was 42.04% and the “% Activity relative to Rapamycin” value was 75.74%.
In the case of Oc1ccccc1O [Pyrocatechol], the “Mean Luminescence” value is reported as 906.35, the “% Activity over baseline” value is reported as 43.99% and the “% Activity relative to Rapamycin” value is reported as 79.25%.
With CCc1c(Cl)c(O)c(Cl)c(O)c1C(=O)O[C@H]1[C@H](O)[C@H](OC)[C@H](OC/C2=C\C=C\C[C@H](O)/C(C)=C/[C@H](CC)[C@@H](O[C@@H]3OC(C)(C)[C@@H](OC(=O)C(C)C)[C@H](O)[C@@H]3O)/C(C)=C/C(C)=C/C[C@@H]([C@@H](C)O)OC2=O)O[C@@H]1C [Fidaxomicin] the “Mean Luminescence” value was 262.87, the “% Activity over baseline” value was 83.75% and the “% Activity relative to Rapamycin” value was 150.90%.
With COc1c(C)c2c(c(O)c1C/C=C(\C)CCC(=O)O)C(=O)OC2 [Mycophenolic acid] the “Mean Luminescence” value was 821.72, the “% Activity over baseline” value was 49.22% and the “% Activity relative to Rapamycin” value was 88.68%.
For C[C@H](CCC(=O)O)[C@H]1CC[C@H]2[C@@H]3[C@H](O)C[C@@H]4C[C@H](O)CC[C@]4(C)[C@H]3CC[C@]12C [Chenodeoxycholic Acid], the “Mean Luminescence” value was 999.71, the “% Activity over baseline” value was 38.22% and the “% Activity relative to Rapamycin” value was 68.86%.
With C[C@H]1CCC/C=C/[C@@H]2C[C@H](O)C[C@H]2[C@H](O)/C=C/C(=O)O1 [Brefeldin A] the “Mean Luminescence” value was 356.17, the “% Activity over baseline” value was 77.99% and the “% Activity relative to Rapamycin” value was 140.52%.
For CC(CC(=O)O)CC(=O)O [3-Methylglutaric acid], the “Mean Luminescence” value was 818.33, the “% Activity over baseline” value was 49.43% and the “% Activity relative to Rapamycin” value was 89.05%.
With CO/N=C(\C(=O)N[C@@H]1C(=O)N2C(C(=O)OC(C)OC(C)=O)=C(COC(N)=O)CS[C@H]12)c1ccco1 (stereo partly drawn) [Cefuroxime axetil] the “Mean Luminescence” value was 958.52, the “% Activity over baseline” value was 40.76% and the “% Activity relative to Rapamycin” value was 73.44%.
N=c1ccn2c(n1)O[C@H]1[C@H](O)[C@@H](CO)O[C@H]12 [Cyclocytidine HCl] was tested, and the “Mean Luminescence” value was 914.30, the “% Activity over baseline” value was 43.50% and the “% Activity relative to Rapamycin” value was 78.37%.
For CN1CCN(c2cc3c(cc2F)c(=O)c(C(=O)O)cn3-c2ccc(F)cc2)CC1 [Difloxacin HCl], the “Mean Luminescence” value was 980.30, the “% Activity over baseline” value was 39.42% and the “% Activity relative to Rapamycin” value was 71.02%.
CO[C@@]12[C@H](COC(N)=O)C3=C(C(=O)C(C)=C(N)C3=O)N1C[C@@H]1N[C@@H]12 [Mitomycin C] was tested, and the “Mean Luminescence” value was 867.02, the “% Activity over baseline” value was 46.42% and the “% Activity relative to Rapamycin” value was 83.63%.
In the case of CC(=O)O[C@]1(C(C)=O)CC[C@H]2[C@@H]3C[C@H](C)C4=CC(=O)CC[C@]4(C)[C@H]3CC[C@@]21C [Medroxyprogesterone acetate], the “Mean Luminescence” value is reported as 800.04, the “% Activity over baseline” value is reported as 50.56% and the “% Activity relative to Rapamycin” value is reported as 91.09%.
With CC1(C)CC[C@]2(C(=O)O[C@@H]3O[C@H](CO[C@@H]4O[C@H](CO)[C@@H](O)[C@H](O)[C@H]4O)[C@@H](O)[C@H](O)[C@H]3O)CC[C@]3(C)C(=CC[C@@H]4[C@@]5(C)CC[C@H](O[C@@H]6OC[C@H](O)[C@H](O)[C@H]6O)[C@@](C)(CO)[C@@H]5CC[C@]43C)[C@@H]2C1 [Asperosaponin VI] the “Mean Luminescence” value was 955.83, the “% Activity over baseline” value was 40.93% and the “% Activity relative to Rapamycin” value was 73.74%.
In the case of C[C@H](CC[C@@]1(O)O[C@H]2C[C@H]3[C@@H]4CC=C5C[C@@H](O[C@@H]6O[C@H](CO)[C@@H](O[C@@H]7O[C@@H](C)[C@H](O)[C@@H](O)[C@H]7O)[C@H](O)[C@H]6O[C@@H]6O[C@@H](C)[C@H](O)[C@@H](O)[C@H]6O)CC[C@]5(C)[C@H]4CC[C@]3(C)[C@H]2[C@@H]1C)CO[C@@H]1O[C@H](CO)[C@@H](O)[C@H](O)[C@H]1O [Protodioscin], the “Mean Luminescence” value is reported as 713.58, the “% Activity over baseline” value is reported as 55.90% and the “% Activity relative to Rapamycin” value is reported as 100.72%.
With C[C@@H]1CC[C@H]2C(C)(C)[C@H]3C[C@@]12CC[C@@]3(C)O [Cedrol] the “Mean Luminescence” value was 850.22, the “% Activity over baseline” value was 47.46% and the “% Activity relative to Rapamycin” value was 85.50%.
In the case of C[C@]12CC[C@@H]3c4ccc(O)cc4CC[C@H]3[C@@H]1CCC2=O [Estrone], the “Mean Luminescence” value is reported as 670.65, the “% Activity over baseline” value is reported as 58.55% and the “% Activity relative to Rapamycin” value is reported as 105.50%.
